Experimental data as given in US11696913B2, “Prolonged ectoparasite-controlling agent for animal” (MITSUI CHEMICALS AGRO, INC., priority 2017, dated 2023).
Where two headings read alike, the source gives them in different places.

What was measured:
[1] = system: Dermacentor variabilis; experiment: In vitro contact test with adult hard ticks (Dermacentor variabilis); details: read-out: acaricidal activity; for pest or weed control at 0.2 µg/cm2, 0.2 µg/cm2: dose 0.2 μg/cm^2, 48 h; for pest or weed control at 1 µg/cm2, 1 µg/cm2: dose 1 μg/cm^2, 48 h
Summary of the method: (§1)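 Adult R. sanguineus, I. ricinus, D. variabilis or A. americanum nymphs exposed in glass vials coated with compound from acetone (900 ppm gives 5 μg/cm^2). Held 48 h at room temperature (R. sanguineus) or 21° C., 85% rel. hum.; then heated at 45-50° C. ≤5 min, motionless or uncoordinated ticks scored dead/moribund.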

[2] = system: Spodoptera litura; experiment: Insecticidal testing against common cutworm; type: in vivo; details: foliar, 144 h, concentration 100 ppm, cabbage leaf dip, second-stage larvae, after 6 days, read-out: pesticidal rate
From the text: Insecticidal Testing Against Common Cutworm (Spodoptera litura)

[3] = system: Laodelphax striatellus; experiment: Insecticidal testing against small brown planthopper; type: in vivo; details: 144 h, concentration 100 ppm, sprayed rice seedlings, after 6 days, read-out: pesticidal rate
Summary of the method: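 Acetone solution of compound at a set concentration sprayed onto rice seedlings, air-dried, then exposed to 10 planthoppers (one group). Held at 25° C; survival rate recorded after 6 days.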

[4] = system: Plutella xylostella; experiment: Insecticidal testing against diamondback moth; type: in vivo; details: foliar, 144 h, concentration 100 ppm, cabbage leaf dip, third-stage larvae, after 6 days, read-out: pesticidal rate
From the text: Insecticidal Testing Against Diamondback Moth (Plutella xylostella)

[5] = system: Rhipicephalus sanguineus; experiment: In vitro contact test with adult hard ticks (Rhipicephalus sanguineus); details: read-out: acaricidal activity; for pest or weed control at 0.2 µg/cm2, 0.2 µg/cm2: dose 0.2 μg/cm^2, 48 h; for pest or weed control at 1 µg/cm2, 1 µg/cm2: dose 1 μg/cm^2, 48 h
Summary of the method: as §1

[6] = system: Ctenocephalides felis; experiment: Systemic treatment in-vivo test with cat flea on rats; details: Ctenocephalides felis, ip, intraperitoneal injection
Summary of the method: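 Rats dosed intraperitoneally per body weight in glycerol formal (up to 25% NMP for poorly soluble compounds). 30 D. variabilis nymphs released on treatment day and weekly, 30 C. felis fleas 24 h later; live attached engorged ticks counted at 48 h (±4 h), live fleas at 24 h, efficacy versus placebo group.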

[7] = system: Ctenocephalides felis; experiment: In vitro contact test with fleas; details: read-out: insecticidal activity; for pest or weed control at 0.04 µg/cm2, 0.04 µg/cm2: dose 0.04 μg/cm^2, dead or moribund fleas after 48 h; for pest or weed control at 0.2 µg/cm2, 0.2 µg/cm2: dose 0.2 μg/cm^2, dead or moribund fleas after 48 h; for pest or weed control at 1 µg/cm2, 1 µg/cm2: dose 1 μg/cm^2, dead or moribund fleas after 48 h
Summary of the method: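 Adult male and female cat fleas (5-10 per tube) placed in glass tubes coated with compound from acetone solution (900 ppm gives 5 μg/cm^2), kept at room temperature and ambient humidity. After 48 h, motionless or uncoordinated fleas scored dead or moribund; activity expressed as % dead or moribund.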

[8] = system: Ctenocephalides felis; experiment: Ctenocephalides felis in-vitro feeding test with fleas (CTECFE oral); details: 48 hours, read-out: insecticidal feeding activity; for pest or weed control at 0.0064 ppm: dose 0.0064 ppm in citrated cattle blood; for pest or weed control at 0.032 ppm: dose 0.032 ppm in citrated cattle blood; for pest or weed control at 0.16 ppm: dose 0.16 ppm in citrated cattle blood; for pest or weed control at 0.8 ppm: dose 0.8 ppm in citrated cattle blood; for pest or weed control at 4 ppm: dose 4 ppm in citrated cattle blood
Summary of the method: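 About 20 unfed adult cat fleas fed through parafilm on citrated cattle blood containing test substance (DMSO solution diluted in blood), held at about 37° C. Kill rate scored after 48 hours, 100% meaning all fleas dead.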

[9] = SD 2, read-out: Geometric mean percent reduction in live flea (Ctenocephalides felis) counts compared to untreated control rats
[10] = SD 9, read-out: Geometric mean percent reduction in live flea (Ctenocephalides felis) counts compared to untreated control rats
[11] = SD 16, read-out: Geometric mean percent reduction in live flea (Ctenocephalides felis) counts compared to untreated control rats
[12] = SD 23, read-out: Geometric mean percent reduction in live flea (Ctenocephalides felis) counts compared to untreated control rats

Row | Compound | pest or weed control at 0.2 µg/cm2, 0.2 µg/cm2 [1] [%] | pest or weed control at 1 µg/cm2, 1 µg/cm2 [1] [%] | pest or weed control at 100 ppm [2] [%] | pest or weed control at 100 ppm [3] [%] | pest or weed control at 100 ppm [4] [%] | pest or weed control at 0.2 µg/cm2, 0.2 µg/cm2 [5] [%] | pest or weed control at 1 µg/cm2, 1 µg/cm2 [5] [%] | inhibition in vivo at 10 mg/kg [6, 9] [%] | inhibition in vivo at 10 mg/kg [6, 10] [%] | inhibition in vivo at 10 mg/kg [6, 11] [%] | inhibition in vivo at 10 mg/kg [6, 12] [%] | pest or weed control at 0.04 µg/cm2, 0.04 µg/cm2 [7] [%] | pest or weed control at 0.2 µg/cm2, 0.2 µg/cm2 [7] [%] | pest or weed control at 1 µg/cm2, 1 µg/cm2 [7] [%] | pest or weed control at 0.0064 ppm [8] [%] | pest or weed control at 0.032 ppm [8] [%] | pest or weed control at 0.16 ppm [8] [%] | pest or weed control at 0.8 ppm [8] [%] | pest or weed control at 4 ppm [8] [%] | further results
1 | CN(C(=O)c1ccc(F)cc1)c1cccc(C(=O)Nc2c(I)cc(C(F)(C(F)(F)F)C(F)(F)C(F)(F)F)cc2OC(F)F)c1F (centres unmarked) [Compound 103] | 90 | 90 | ≥ 70 | ≥ 70 | ≥ 70 | 90 | 90 | 100 | 92 | 70 | 20 | 95 | 95 | 95 | 95 | 95 | 95 | 95 | 95 | pest or weed control at 0.04 µg/cm2, 0.04 µg/cm2 ([1]; dose 0.04 μg/cm^2, 48 h): 90%
2 | CN(C(=O)c1ccc(F)nc1)c1cccc(C(=O)Nc2c(I)cc(C(F)(C(F)(F)F)C(F)(F)F)cc2C(F)(F)F)c1F [Compound 115, 6-fluoro-N-(2-fluoro-3-((2-iodo-4-(perfluoropropan-2-yl)-6-(trifluoromethyl)phenyl)carbamoyl)phenyl)-N-methylnicotinamide] | 90 | 90 | ≥ 70 | ≥ 70 | ≥ 70 | 90 | 90 | 100 | 100 | 99 | 47 | 95 | 95 | 95 | 95 | 95 | 95 | 95 | 95 | pest or weed control at 0.04 µg/cm2, 0.04 µg/cm2 ([5]; dose 0.04 μg/cm^2, 48 h): 90%; inhibition in vivo at 2 mg/kg [6, 9]: 100%; inhibition in vivo at 2 mg/kg [6, 10]: 98%; inhibition in vivo at 2 mg/kg [6, 11]: 73%; inhibition in vivo at 10 mg/kg ([6]; SD 30, read-out: Geometric mean percent reduction in live flea (Ctenocephalides felis) counts compared to untreated control rats): 8%
